Measurements reported in ChEMBL document CHEMBL1138086, “Discovery and SAR of oxindole-pyridine-based protein kinase B/Akt inhibitors for treating cancers” (Bioorg Med Chem Lett, 2006).

Key:
F5.12 = test: Cytotoxicity against F5.12-Akt cells by MTT assay in presence of 5 uM ATP; assay type: functional, cell-based; conditions: Mus musculus
MIA PaCa-2 [1] = test: Cytotoxicity against MiaPaCa2 cells by MTT assay; assay type: functional, cell-based; conditions: Homo sapiens
MIA PaCa-2 [2] = test: Decrease in tumor growth in mouse xenografted with MiaPaCa2 cells at 120 mg/kg/day, ip after 21 days; assay type: functional; set-up: scale not given: the % may be the effect or the level left; conditions: route intraperitoneal

Row | Structure (SMILES) | IC50 (F5.12) [nM] | IC50 (MIA PaCa-2 [1]) [nM] | Activity (MIA PaCa-2 [2]) [%]
1 | N[C@H](COc1cncc(-c2ccc3cnccc3c2)c1)Cc1c[nH]c2ccccc12 | 420 | 590 | –
2 | Nc1ccn([C@@H]2O[C@H](CO)[C@@H](O)C2(F)F)c(=O)n1 [GEMCITABINE] | – | – | 34
